Measurements: PubChem BioAssay AID1033 (Sanford-Burnham Center for Chemical Genomics, 2008)
Activity calls are given as the source filed them. The rule behind the calls is not given here.

Target: Chaperone protein DnaK (Escherichia coli (strain K12)) (UniProt P0A6Y8)
Assay: E. coli DnaK SBD ligand binding – biophysical, NMR, chaperone (AID 1033)
Settings: Purified DnaK SBD

Sequence of Chaperone protein DnaK (Escherichia coli (strain K12)) (P0A6Y8 whole entry, looked up): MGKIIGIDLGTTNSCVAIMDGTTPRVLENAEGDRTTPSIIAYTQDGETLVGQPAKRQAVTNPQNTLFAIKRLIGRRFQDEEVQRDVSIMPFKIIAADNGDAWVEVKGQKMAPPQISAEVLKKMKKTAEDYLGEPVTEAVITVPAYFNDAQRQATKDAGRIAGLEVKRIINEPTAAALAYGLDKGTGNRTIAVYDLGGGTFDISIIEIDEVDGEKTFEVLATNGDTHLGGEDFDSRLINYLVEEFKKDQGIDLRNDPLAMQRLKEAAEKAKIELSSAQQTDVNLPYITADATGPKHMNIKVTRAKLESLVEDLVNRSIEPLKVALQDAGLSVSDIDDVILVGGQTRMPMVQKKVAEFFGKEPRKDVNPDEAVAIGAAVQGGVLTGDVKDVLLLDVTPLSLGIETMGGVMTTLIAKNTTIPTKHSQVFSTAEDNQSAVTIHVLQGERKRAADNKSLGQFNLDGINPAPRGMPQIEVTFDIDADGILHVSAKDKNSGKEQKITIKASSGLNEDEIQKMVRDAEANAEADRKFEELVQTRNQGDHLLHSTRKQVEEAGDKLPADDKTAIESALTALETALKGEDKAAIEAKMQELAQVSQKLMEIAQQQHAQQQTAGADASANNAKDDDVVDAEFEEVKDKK

Compound	Kd
CC(NC(=O)c1cccnc1)c1ccc2c(c1)OCO2 (stereo not given)	> 4 mM (inactive)
CNC(=S)Nc1ncn(Cc2cccc(F)c2)n1	> 4 mM (inactive)
CC(=O)CS(=O)(=O)c1ccccc1	> 4 mM (inactive)
CC[C@]12CCCN3CCc4c(n(c5ccccc45)[C@](O)(C(=O)OC)C1)[C@@H]32	> 4 mM (inactive)
Cc1cccc(N2CCN(C(=O)c3ccncc3)CC2)c1C	> 4 mM (inactive)
C=CCc1ccc2c(c1)OCO2	> 4 mM (inactive)
COc1ccccc1NC(=O)CCC(=O)O	> 4 mM (inactive)
C[C@]12CC(=O)C3C(CC[C@@H]4C[C@H](O)CC[C@]34C)C1CC[C@]2(O)C(=O)CO (stereo not given in full)	> 4 mM (inactive)
Nc1nncn1C(=O)c1c(Cl)cccc1Cl	> 4 mM (inactive)
Nc1nc(-c2cccnc2)nn1C(=O)Cc1ccccc1	> 4 mM (inactive)
Cc1cc(C(=O)NC(C)c2ccncc2)no1 (stereo not given)	> 4 mM (inactive)
COc1cc(O)cc(/C=C/c2ccccc2)c1	> 4 mM (inactive)
Clc1ncc2[nH]cnc2n1	> 4 mM (inactive)
CC(C)(O)[C@@H]1Cc2cc3ccc(=O)oc3cc2O1	> 4 mM (inactive)
COc1ccc(-c2coc3c(OC)c(OC)cc(O)c3c2=O)cc1	> 4 mM (inactive)
Cc1ccc(CO)o1	> 4 mM (inactive)
CN1CCn2c1nc(N1CCOCC1)nc2=O	> 4 mM (inactive)
CC(C)[C@@H]1CC[C@@H](C)C[C@H]1O	> 4 mM (inactive)
OCC1CCCN2CCCCC12 (stereo not given)	> 4 mM (inactive)
CN1C(=O)C2C=CC1C1C(=O)N(c3ccccc3)C(=O)C21 (stereo not given)	> 4 mM (inactive)
COC(=O)CCSCC(=O)Nc1nnc(C)s1	> 4 mM (inactive)
COc1ccccc1-c1c(C)nn2c(C)c(C(C)=O)cnc12	> 4 mM (inactive)
CC(=O)c1sc(NC(=O)C=C(C)C)nc1C	> 4 mM (inactive)
COc1c2occc2c(OC)c2c(=O)cc(C)oc12	> 4 mM (inactive)

Compound	Kd
O=C(O)C1C(=O)NCC1c1ccccc1 (stereo not given)	> 4 mM (inactive)
CCN(CC)S(=O)(=O)c1ccc(F)cc1	> 4 mM (inactive)
COc1c(O)cc2c(-c3ccccc3)cc(=O)oc2c1OC	> 4 mM (inactive)
NC(=O)CSc1nc2[nH]ncc2c(=O)[nH]1	> 4 mM (inactive)
C=CCCCCCCCCCCCC(O)CC(O)COC(C)=O (stereo not given)	> 4 mM (inactive)
CC[C@H]1CN2CCC1C[C@@H]2[C@@H](O)c1ccnc2ccc(OC)cc12 (stereo not given in full)	> 4 mM (inactive)
COC(=O)C[C@@H]1C2(C)C(=O)[C@@H](CC3=C4CC(O)O[C@@H](c5ccoc5)[C@]4(C)CCC32)[C@H](O)C1(C)C (stereo not given in full)	> 4 mM (inactive)
O=C(CSc1ccnc(=O)[nH]1)NCc1ccco1	> 4 mM (inactive)
COc1ccc(C(C)=O)c(O)c1	> 4 mM (inactive)
Cn1c(=O)c2cn3ncccc3c2n(C)c1=O	> 4 mM (inactive)
NC(=O)Cn1nc(-c2ccco2)ccc1=O	> 4 mM (inactive)
COc1ccc(NC(=O)CSc2nccc(=O)[nH]2)cc1	> 4 mM (inactive)
Cc1nc2nc(COc3ccccc3)nn2c(C)c1Cl	> 4 mM (inactive)
C[C@H]1C(=O)CCC2[C@]3(C)CC[C@@]4(C)C5CC(C)(C)CC[C@]5(C)CC[C@]4(C)C3CC[C@@]21C (stereo not given in full)	> 4 mM (inactive)
COc1ccccc1-c1nc(=S)[nH][nH]1	> 4 mM (inactive)
COC1C=CC23c4cc5c(cc4CN(CC2O)[C@@H]3C1)OCO5 (stereo not given in full)	> 4 mM (inactive)
Cc1ccc(C)n1-c1ccc(C(=O)N2CCOCC2)cc1	> 4 mM (inactive)
NC(=O)c1ccc(C(N)=O)c(-c2ccccc2)c1	> 4 mM (inactive)
OCC1CCN(Cc2ccccc2)CC1	> 4 mM (inactive)
CC(C)c1ccc2c(c1)CCC1[C@](C)(CN)CCC[C@]21C (stereo not given in full)	> 4 mM (inactive)
Cc1noc(C)c1C(=O)N1CCc2ccccc21	> 4 mM (inactive)
Cc1cc(SCC(=O)c2ccccc2)nc(=O)[nH]1	> 4 mM (inactive)
CCc1sc(C(=O)NC)cc1Br	> 4 mM (inactive)
COc1ccc2c(c1)OC/C(=C\c1ccc(OC)c(O)c1)C2=O	> 4 mM (inactive)

Compound	Kd
S=C1NC(=S)NC(c2ccc3c(c2)OCO3)N1	> 4 mM (inactive)
CCSc1nc(N)c(NC(=O)c2ccco2)c(=O)[nH]1	> 4 mM (inactive)
CC(=O)N1CCn2c3c(c(=O)c4cc(C)ccc42)CCC31 (stereo not given)	> 4 mM (inactive)
CNC(=O)Oc1ccc2c(c1)[C@]1(C)CCN(C)[C@@H]1N2C	> 4 mM (inactive)
CC(C)NC(=S)N1CCN(S(C)(=O)=O)CC1	> 4 mM (inactive)
Cc1ccc(C(O)c2nccn2C)o1 (stereo not given)	> 4 mM (inactive)
CC1=C(C(=O)Nc2ccccc2)SCCO1	> 4 mM (inactive)
NC1CCN(Cc2ccccc2)CC1	> 4 mM (inactive)
COc1cccc(NC(=O)c2ocnc2C)c1	> 4 mM (inactive)
O=C(O)CC[N+](=O)[O-]	> 4 mM (inactive)
CC(=O)O[C@@H]1CC2C(C)(C)C=CC(=O)[C@]2(C)C2CC[C@@]3(C)[C@H](c4ccoc4)OC(=O)C4OC43[C@@]21C (stereo not given in full)	> 4 mM (inactive)
c1ccc(SCc2nc(-c3cccnc3)no2)cc1	> 4 mM (inactive)
Cc1cc(C(=O)NCc2ccccc2Br)no1	> 4 mM (inactive)
CC(=O)c1c(C)nc(-c2cccs2)n1O	> 4 mM (inactive)
CSc1nc(NC(C)C)nc(N2CCOCC2)n1	> 4 mM (inactive)
CC[C@H]1CN2CCc3cc(OC)c(OC)cc3C2C[C@@H]1CC1NCCc2cc(OC)c(OC)cc21 (stereo not given in full)	> 4 mM (inactive)
O=S(=O)(Nc1cccc2cn[nH]c12)c1ccc(F)cc1	> 4 mM (inactive)
O=C(NC(=S)NN1CCOCC1)c1cccs1	> 4 mM (inactive)
Cc1ccc(N2C(=O)CC(=O)NC2=O)cc1	> 4 mM (inactive)
CCCS(=O)(=O)N1CCN(c2ccccc2F)CC1	> 4 mM (inactive)
CSc1ncc(C(=O)O)n1Cc1ccccc1	> 4 mM (inactive)
COc1cc(-c2coc3cc(O[C@@H]4O[C@H](CO)[C@@H](O)[C@H](O)[C@H]4O)c(OC)c(O)c3c2=O)cc(O)c1OC	> 4 mM (inactive)
O=S(=O)(O)c1nc2ccccc2[nH]1	> 4 mM (inactive)
COc1ccccc1NC(N)=S	> 4 mM (inactive)

Compound	Kd
Cc1cc(/C=N/O)nc(=O)[nH]1	> 4 mM (inactive)
CCN1C(=O)c2cccc3c(S(N)(=O)=O)ccc1c23	> 4 mM (inactive)
O=C(C1CCNCC1)N1CCCCCC1	> 4 mM (inactive)
NC(=O)Cn1cnc(-c2ccc(F)cc2)c1	> 4 mM (inactive)
Cc1ccc(N2CCN(C(=O)c3ccccc3)CC2)c(C)c1	> 4 mM (inactive)
C=CCn1c(-c2ccc(O)cc2)n[nH]c1=S	> 4 mM (inactive)
O=S1(=O)CCC(NC(=S)N2CCOCC2)C1 (stereo not given)	> 4 mM (inactive)
CCSc1nc2ccccc2n1CC(N)=O	> 4 mM (inactive)
CC(=O)Nc1ccc(S(=O)(=O)NCC2CCCO2)cc1 (stereo not given)	> 4 mM (inactive)
CN(C)CCCN1CNC(=S)NC1	> 4 mM (inactive)
CCOc1ccc(-c2n[nH]c(=S)n2C)cc1	> 4 mM (inactive)
CNC(=O)Nc1ccc(C(=O)NC)cc1	> 4 mM (inactive)
COc1ccc2c(c1)c1n[nH]c(=S)nc1n2C	> 4 mM (inactive)
O=C(Nc1cccc2cccnc12)c1cccnc1	> 4 mM (inactive)
CC(=O)N(C)Cc1nc2ccccc2n1C	> 4 mM (inactive)
Nc1ncnc2c1ncn2CCOc1ccccc1	> 4 mM (inactive)
CC(=O)Nc1ccc2c(c1)C(=O)N(C1CCCCC1)C2=O	> 4 mM (inactive)
CC(=O)Cc1nsc(NC(=O)c2ccc(C)cc2)n1	> 4 mM (inactive)
COc1ccc2c(c1)OCC(Cc1ccc(OC)c(OC(C)=O)c1)C2=O (stereo not given)	> 4 mM (inactive)
O=C(Nc1ccccc1)C(=O)NC1CC1	> 4 mM (inactive)
CC(=O)Nc1cccc(N2CCCC2=O)c1	> 4 mM (inactive)
CC(=O)c1cc2c(cc1O)OC(C)(C)C=C2	> 4 mM (inactive)
O=C(O)Cn1nnn(-c2ccccc2)c1=S	> 4 mM (inactive)
Nc1ccc2c(c1)N1CCN=C1S2	> 4 mM (inactive)

Compound	Kd
CC(=O)n1c(N)nc2ccccc21	> 4 mM (inactive)
O=C(COc1ccccc1)N1CCc2ccccc2C1	> 4 mM (inactive)
O=C1Nc2ccccc2C1(O)Cc1ccncc1 (stereo not given)	> 4 mM (inactive)
CC(C)NC(=O)c1cc(-n2cnnc2)ccc1Cl	> 4 mM (inactive)
CC1=NN2C(=N)CC(=O)N=C2S1	> 4 mM (inactive)
Nc1cccc2c(=O)[nH][nH]c(=O)c12	> 4 mM (inactive)
Cc1c(N=CN2CCOCC2)c(=O)n(C)c(=O)n1C	> 4 mM (inactive)
O=C(O)c1cnn2ccccc12	> 4 mM (inactive)
COC(=O)Nc1nc2c(s1)CCCC2	> 4 mM (inactive)
OC1CCCN(Cc2ccccc2)C1 (stereo not given)	> 4 mM (inactive)
NC(=O)CSc1ncnc2ccccc12	> 4 mM (inactive)
O=C1CSC(=Nc2ccc(Cl)cc2)N1	> 4 mM (inactive)
Cc1ccc2c(C)c(C(=O)Nc3nnc(C)s3)oc2c1	> 4 mM (inactive)
NCc1ccc(-n2cccn2)cc1	> 4 mM (inactive)
CC(=O)Nc1cc(C(N)=O)cc(C(N)=O)c1	> 4 mM (inactive)
CC(C)CCCC(C)C1CCC2C3CC(=O)[C@H]4C[C@@H](O)CC[C@]4(C)C3CC[C@]12C (stereo not given in full)	> 4 mM (inactive)
Cn1c(=O)cc(O)c2ccccc21	> 4 mM (inactive)
O=C(O)CCSc1nc2ccccc2s1	> 4 mM (inactive)
CSc1nnc2[nH]c(=O)cc(N)n12	> 4 mM (inactive)
CSc1ccc(/C=N/n2c(C)nnc2C)cc1	> 4 mM (inactive)
Cc1occc1C(=O)Nc1nnc(C2CCCCC2)s1	> 4 mM (inactive)
C=C1CSc2nc(=O)c3c(C)c(C)sc3n21	> 4 mM (inactive)
COC(=O)c1cc(-c2c[nH]c3ccccc23)n[nH]1	> 4 mM (inactive)
CC(=O)Nc1ccn(-c2ccccc2)n1	> 4 mM (inactive)
